In patent US7875343B2, “Anti-microbial carpet underlay and method of making” (L & P Property Management Company, priority 2003, dated 2011):
Where two headings read alike, the source gives them in different places.

Assays:
Staphylococcus aureus [1] = test system: Staphylococcus aureus
Description: (§1) Biocidal effectiveness of the rebonded carpet pad 12 and/or film 18 according the present invention may be determined by measuring inhibition of growth of bacterial and/or fungus using AATCC (American Association of Textile Chemists and Colorists) 174, ASTM E2180-1, and ASTM D 3273 test protocols compared to non-treated control standards. The AATCC 174 protocol was developed for determining the antimicrobial activity of new carpet materials.
(§2) A number of specimens of carpet underlay 10 were made by methods described above, with various concentrations of zinc pyrithione in the binder 16 and film 18 for testing to determine levels that provide an effective antimicrobial effect. The specimens included a film 18 on one side as illustrated in FIG. 1. This allowed testing of the foam side of the specimens to indicate antimicrobial effect of the pad 12 without film 18 and testing of the film side to indicate antimicrobial effect of the pad 12 with film 18. The AATCC 174 test method provides for testing both unwashed and washed samples. Washed samples were treated according to the AATCC 138 protocol.
(§3) The AATCC 174, Part II test provides a quantitative procedure for the evaluation of the degree of antibacterial activity. Test specimens are inoculated with the test microorganisms. After incubation, the bacteria are eluted from specimens by shaking in 100 milliliters of liquid. The number of bacteria present in the liquid is determined and the percent reduction produced by the specimen is calculated.

Klebsiella pneumoniae [2] = test system: Klebsiella pneumoniae
Description: as §1, §2, §3

Aspergillus niger [3] = details: film side specimens, total minimum combined concentration (pad + film) of about 1600 ppm
Description: as §1

Aspergillus niger [4] = details: 28 degrees C., seven days
Description: as §1, §2

Aspergillus niger [5] = test system: Aspergillus niger
Experimental: as §1
Inhibitory mold activity was also tested by the ASTM E2180-01 test method. […] The total combined concentration is the sum of the concentration in the pad 12 of a specimen and the concentration in the film 18 of the specimen.

Staphylococcus aureus [6] = details: unwashed foam side specimen with 751 ppm of zinc pyrithione
Description: as §1, §2
(§4) The AATCC 174 test method includes three parts. Part I is a qualitative test for antibacterial activity. Test specimens are placed into contact with a nutrient agar which has been streaked with a bacterial culture. The specimens are then incubated. After incubation, a clear area of interrupted growth underneath and along the sides of the test specimen indicates antibacterial activity of the specimen. Standard strains of bacteria are used, with Staphylococcus aureus and Klebsiella pneumoniae being the representative organisms.

Klebsiella pneumoniae [7] = test system: Klebsiella pneumoniae; remark: listed apart in the source
Description: as §1, §2, §4

[8] = all unwashed and washed film and foam side specimens, 500 ppm or more in the film and 1096 ppm in the pad
[9] = washed foam side specimen containing 751 ppm of zinc pyrithione
[10] = washed foam side specimen containing 1096 ppm of zinc pyrithione

Compound: [O-]n1ccccc1=S.[O-]n1ccccc1=S.[Zn+2] [zinc pyrithione, Bis(1-hydroxy-2(1H)-pyridinethionato-O,S)-(T-4)Zinc]
- average reduction in Staphylococcus aureus (Staphylococcus aureus [1]; [8]): 92%
- reduction in Staphylococcus aureus (minimum over specimens) (Staphylococcus aureus [1]; [8]): at least 66%
- reduction in the numbers of Staphylococcus aureus (Staphylococcus aureus [1]; [9]): 90%
- reduction in the numbers of Staphylococcus aureus (Staphylococcus aureus [1]; [10]): 90%
- reduction in the numbers of Klebsiella pneumoniae (Klebsiella pneumoniae [2]; [9]): 90%
- reduction in the numbers of Klebsiella pneumoniae (Klebsiella pneumoniae [2]; [10]): 90%
- Aspergillus niger mold colonization (Aspergillus niger [3]): No Aspergillus niger mold colonization was observed
- fungus growth (Aspergillus niger) (Aspergillus niger [4]; washed and unwashed film side samples, 1500 ppm or greater of zinc pyrithione in the film): No growth was observed
- fungus growth (Aspergillus niger) (Aspergillus niger [4]; washed and unwashed foam side samples, 1096 ppm of zinc pyrithione in the pad): no observable fungus growth
- inhibitory activity for Aspergillus niger (Aspergillus niger [5]; film side specimens, total minimum combined concentration (pad + film) of 1600 ppm): Good inhibitory activity
- inhibitory activity for Aspergillus niger (Aspergillus niger [5]; total combined concentration of 1251 ppm, i.e. 751 ppm in the pad and 500 ppm in the film): Good results were achieved for some, but not all, specimens
- zone of inhibition for Staphylococcus aureus (Staphylococcus aureus [6]): two
- growth of Klebsiella pneumoniae underneath and along the sides of the specimen (Klebsiella pneumoniae [7]; all unwashed and washed foam side specimens with 1096 ppm or more of zinc pyrithione): inhibited the growth
- zone of inhibition for Klebsiella pneumoniae (Klebsiella pneumoniae [7]; unwashed foam side specimen with 751 ppm of zinc pyrithione): one
